Measured values as given in patent publication US11510410B2, “Pediculicidal composition” (DR. REDDY'S LABORATORIES, S.A., priority 2013, dated 2022).

Tests used:
[1] = system: head lice Pediculus humanus capitis infestation; experiment: In vivo efficacy in subjects with head lice infestation, two dose levels (Example 8); details: single 10 minute application, human subjects 3 years or older
Procedure: (§1) One hundred and forty two (142) pediatric and adult subjects, three (3) years of age or older, with an active head lice infestation were enrolled in the study. This study assessed the efficacy of a single application of 2 different dose levels (0.37% w/w and 0.74% w/w of 5,5′-dimethyl-2,2′-dipyridyl) compared to a vehicle control. The formulations were prepared as described in Table 9. Subjects were treated for 10 minutes with a lotion containing one of two dose levels of 5,5′-dimethyl-2,2′-dipyridyl or the vehicle lotion. After 10 minutes the lotion was rinsed out of the subjects hair with water and towel dried. At day 1, 7 and 14 post treatment the hair was examined for the presence of live lice. If any live lice were detected on any of the three visits the subject was deemed a treatment failure. The primary endpoint to the study was that proportion of subjects who were lice free at day 14.

[2] = system: Pediculus humanus capitis eggs; experiment: Ex vivo ovicidal efficacy, double-blind vehicle-controlled randomized clinical trial (Example 7)
Procedure: In this study the formulation as listed in Table 9 containing 0.74% 5,5′-dimethyl-2,2′-dipyridyl, (abametapir), was evaluated in a double-blind, vehicle-controlled randomized clinical trial. The primary aim of the trial was to evaluate the ovicidal efficacy of a single application of abametapir lotion 0.74% w/w intended for the treatment of head lice. The primary end point was the proportion of hatched eggs pre-treatment relative to proportion of hatched eggs post-treatment for the formulation containing abametapir and vehicle treated eggs following a 14 day incubation.
This ex vivo study involved identifying subjects with an active head lice infestation (active being defined as the presence of at least 3 live lice and at least 10 undamaged eggs). A minimum of 5 undamaged eggs were collected both pre and post treatment and their predicted viability assessed under a dissecting microscope before being incubated in a temperature and humidity controlled incubator (30° C. and 60% RH) for 14 days to provide adequate time for the eggs to hatch. After 14 days eggs were assessed as either hatched, unhatched, or partially hatched.

[3] = Safety of single application in subjects (Example 8); assay type: in vivo, human; details: single application at two dose levels 0.37% w/w and 0.74% w/w
Procedure: as §1

[4] = system: Pediculus humanus capitis eggs; experiment: Effect of formulated 5,5′-dimethyl-2,2′-dipyridyl on egg hatching (Example 3); details: for Stage of development: eggs with eye development / Stage of development: eggs with no eye development / Stage of development: eggs hatched: 10 eggs
Procedure: Gravid female lice were permitted to lay eggs over a 24 hour period. The eggs were counted, inspected under a light microscope and all eggs that appeared undamaged were allocated to one of two treatment groups. One group of 10 eggs was exposed to 5,5′-dimethyl-2,2′-dipyridyl in a formulation (52-06-01), while the second group of 10 eggs was exposed to the formulation only (vehicle, 52-06-02) Table 2. The two formulations were as follows: […]
Following a 10 minute exposure to either the 52-06-01 or […] formulations the eggs were subsequently washed for 1 minute with water (˜37° C.) before being placed at 31° C. in a humid incubator and monitored over time for signs of development specifically of the eyes and through to subsequent hatching.

[5] = Safety of single application in Phase 3 studies (Example 9); assay type: in vivo, human; details: single application 0.74% w/w
Procedure: A total of seven hundred and four (704) pediatric and adult subjects, six (6) months of age or older, with an active head lice infestation were enrolled in two separate Phase 3 studies. These studies assessed the efficacy of a single application of 0.74% w/w abametapir compared to a vehicle control (refer Table 9, above). Subjects were treated for 10 minutes with a lotion containing abametapir or the vehicle lotion alone. After 10 minutes the lotion was rinsed out of the subjects hair with water and towel dried. At day 1, 7 and 14 post treatment the hair was examined for the presence of live lice. If any live lice were detected on any of the three visits the subject was deemed a treatment failure. The primary endpoint to the study was that proportion of index subjects (youngest member of the household with at least 3 live lice at the commencement of the study) who were lice free at all follow-up visits through day 14.

[6] = system: Pediculus humanus humanus eggs; experiment: In vitro ovicidal efficacy, 0.74% w/w composition versus vehicle (Example 6); details: compared to the vehicle formulation
Procedure: This formulation including 0.5% BHT was also evaluated for its ovicidal activity.

[7] = Day 1 of observation, formulation 52-06-01 (0.38%), 10 minute exposure
[8] = Day 4, formulation 52-06-01, 10 minute exposure
[9] = Day 5, formulation 52-06-01, 10 minute exposure
[10] = Day 6, formulation 52-06-01, 10 minute exposure
[11] = Day 7, formulation 52-06-01, 10 minute exposure
[12] = Day 12, formulation 52-06-01, 10 minute exposure

SMILES: Cc1ccc(-c2ccc(C)cn2)nc1 [5,5′-dimethyl-2,2′-dipyridyl]
- subjects with treatment success (lice free at day 14) ([1]; 0.37% w/w lotion): 67.4%
- subjects with treatment success (lice free at day 14) ([1]; 0.74% w/w lotion): 85.7%
- Egg hatch Post-treatment ([2]; eggs collected after single application, 14 day incubation, N = 25): 0%
- Egg hatch Pre-treatment ([2]; eggs collected pre-treatment (baseline), 14 day incubation, N = 25): 93.3%
- Total absolute reduction in hatch rate (CI 95%) ([2]; generalized estimating equation model): 92.9%
- The treatment difference in the absolute reduction of hatch rates (abametapir minus Vehicle) ([2]; p < 0.0001): 50.6%
- ovicidal efficacy (eggs treated failed to hatch) ([2]; post-treatment, 14 day incubation): 100%
- safety results [3]: safe and well tolerated
- Stage of development: eggs with eye development [4, 7]: 1 eye development
- Stage of development: eggs with no eye development [4, 7]: 9 no eye development
- Stage of development: eggs hatched [4, 8]: 1 hatched
- Stage of development: eggs with eye development [4, 8]: 1 eye development
- Stage of development: eggs with no eye development [4, 8]: 8 no eye development
- Stage of development: eggs hatched [4, 9]: 1 hatched
- Stage of development: eggs with eye development [4, 9]: 1 eye development
- Stage of development: eggs with no eye development [4, 9]: 8 no eye development
- Stage of development: eggs hatched [4, 10]: 1 hatched
- Stage of development: eggs with eye development [4, 10]: 1 eye development
- Stage of development: eggs with no eye development [4, 10]: 8 no eye development
- Stage of development: eggs hatched [4, 11]: 1 hatched
- Stage of development: eggs with eye development [4, 11]: 1 eye development
- Stage of development: eggs with no eye development [4, 11]: 8 no eye development
- Stage of development: eggs hatched [4, 12]: 1 hatched
- Stage of development: eggs with eye development [4, 12]: 1 eye development
- Stage of development: eggs with no eye development [4, 12]: 8 no eye development
- eggs in the treatment arm failed to hatch ([4]; overall, ten eggs, 0.37% w/w formulation, 10 minute exposure): 90%
- safety results [5]: safe and well tolerated
- ovicidal activity (in words) [6]: significant ovicidal activity
